Test results published in EP0412760A2, “Benzopyran derivatives” (Beecham Group p.l.c., priority 1989, dated 1991).

Experiments:
[1] = system: trachea; experiment: Bronchodilator activity: relaxation of isolated trachea spirals; format: cell-based, guinea pigs; settings: Cavia porcellus; fall in resting tension as percentage of total relaxation evoked by 10⁻³M isoprenaline; guinea pig trachea spirals, Krebs solution at 37°C; read-out: IC₅₀
Description: Male guinea pigs (300-600g) were stunned by a blow to the head and bled from the carotid artery. The trachea was exposed, dissected free of connective tissue, and transferred to oxygenated Krebs solution at 37 °C. Next, spirals (2 per trachea) were prepared by cutting the whole trachea spirally along its longitudinal axis and then dividing this spiral lengthwise. Each preparation was mounted, using silk thread, in a 10ml organ bath filled with Krebs solution at 37 °C and bubbled with 5% CO₂ with O₂. The resting tension of the preparations was set at 2g and changes in muscle tension were monitored isometrically by means of a UFI (2oz) force and displacement transducer (Ormed Ltd) connected to a Linseis pen recorder. All preparations were allowed to equilibrate for 60 minutes. During this equilibration period the preparations were washed by upward displacement at 15 minute intervals and, if necessary, the resting tension was readjusted to 2g using a mechanical micromanipulator system.
Once a steady resting tension had been obtained, the preparations were dosed simultaneously with the test compound (10⁻⁸-2x10⁻⁵M), and finally a maximum relaxation achieved by addition of 10⁻³M isoprenaline. The fall in tension evoked by the test compound was expressed as a percentage of the total relaxation evoked in the presence of 10⁻³ isoprenaline. […]

[2] = system: Spontaneously hypertensive rats; experiment: Antihypertensive activity: systolic blood pressure by tail cuff method; format: in vivo; settings: dose of 0.05 mg/kg p.o.
Description: Systolic blood pressures were recorded by a modification of the tail cuff method described by I.M. Claxton, M.G. Palfreyman, R.H. Poyser, R.L. Whiting, European Journal of Pharmacology, 37, 179 (1976). A W+W BP recorder, model 8005 was used to display pulses. Prior to all measurements rats were placed in a heated environment (33.5 ± 0.5°C) before transfer to a restraining cage. The determination of blood pressure was the mean of 5 readings. Spontaneously hypertensive rats (ages 12-18 weeks) with systolic blood pressures >180 mmHg were considered hypertensive.

Q: For `CCc1ccc2c(c1)[C@@H](N1CCCCC1=O)[C@H](O)C(C)(C)O2` [compound of formula (I), 3,4-Dihydro-2,2-dimethyl-6-ethyl-4R-(2-oxopiperidin-1-yl)-2H-1-benzopyran-3S-ol], which IC50 [1] is on record?
A: Its IC50 is 230 nM.

Q: And the “maximum fall in blood pressure” value [2]?
A: Its value is 19%.
